The values below come from article PMC4783772, “PEGylated substrates of NSP4 protease: A tool to study protease specificity” (Scientific Reports, 2016).

Usually Km stands for the concentration of substrate that gives half-maximal velocity. As a reminder, the kcat is the maximal rate divided by the concentration of active sites. A word on the kcat/KM: it is the second-order rate constant that governs catalysis at low substrate concentration.

Where two headings read alike, the source gives them in different places. Square brackets hold non-standard residues; d marks the D form. Side chains are listed from the residue outwards. Peptide text beside a SMILES is read from it. * marks the point of attachment. 2Abz = Nc1ccccc1C(=O)O; Cbz = O=C(OCc1ccccc1)*; Dap = NC[C@H](N)C(=O)O; X1 = N=C(N)NCCOCC(=O)*; AEEA = NCCOCCOCC(=O)O

Series [1] deals with NSP4. Particulars: cited from earlier work. The text has this:
Table 2 Kinetic parameters of reported artificial substrates of NSP4. | column: kcat [s^−1]; KM [μM]; kcat/KM M^−1 × s^−1

Series [2] has as its system NSP4. The series can be described thus: NSP4-mediated proteolysis of substrate 1 in the selectivity panel. It counts as biochemical, human. Particulars: substrate 1 1.97 μM; Figure 5. Here is the method:
(§1) Figure 5 Incubation of substrate 1 (1.97 μM) with (A) neutrophil serine proteases (cathepsin G, elastase, and proteinase 3) at a concentration of 8.7 nM; (B) set of blood-associated proteases involving cathepsins and kallikreins.
(§2) For the enzymatic studies, we used human NSP4 expressed in a Pichia pastoris expression system as described in ref. [15]. The NSP4 concentration used in the deconvolution of the library was […]. The bovine β-trypsin (Sigma Chem. Co., USA) concentration was determined by spectrophotometric titration with 4-nitrophenyl-4′-guanidinobenzoate (NPGB) at an enzyme concentration oscillating around 10^−6 M. Standardized trypsin solution was used to titrate BPTI (Sigma Chem. Co., USA) which in turn served to determine the solution concentrations of the produced NSP4. The substrate ABZ-Met-Phe-Pro-Arg-ANB-NH2 recently developed in our lab was used. The deconvolution of peptide libraries was carried out by the iterative solution method. The lyophilizates obtained for each sublibrary were dissolved in dimethyl sulfoxide (DMSO) to a final concentration of 5 mg/ml, and then diluted tenfold in an assay buffer. The fluorescence tests were performed using a FluoroStar OMEGA fluorescent microplate reader (BMG, Germany). The excitation and emission wavelengths were 320 nm and 410 nm for the ABZ/ANB. […]

Series [3] has as its system KLK14. Description: Selectivity: incubation with KLK14. The format is biochemical, human. Particulars: substrate 1.97 μM; Figure 5B; pH 7.4, 37 °C, 30 min. On the procedure:
as §1, §2

The test system of series [4] is proteinase 3 (PR3). Description: Selectivity: incubation with proteinase 3. It counts as biochemical, human. The note with it: substrate 1.97 μM; PR3 10^−8 M, 8.7 nM (Figure 5A legend); pH 7.4, 37 °C, 30 min. Here is the method: as §1, §2
The target in series [5] is T1, human NSP4 (Homo sapiens, UniProt Q6UWY2).
T1 construct: made in house; host or cells: Pichia pastoris
T1 sequence (Q6UWY2 32-283): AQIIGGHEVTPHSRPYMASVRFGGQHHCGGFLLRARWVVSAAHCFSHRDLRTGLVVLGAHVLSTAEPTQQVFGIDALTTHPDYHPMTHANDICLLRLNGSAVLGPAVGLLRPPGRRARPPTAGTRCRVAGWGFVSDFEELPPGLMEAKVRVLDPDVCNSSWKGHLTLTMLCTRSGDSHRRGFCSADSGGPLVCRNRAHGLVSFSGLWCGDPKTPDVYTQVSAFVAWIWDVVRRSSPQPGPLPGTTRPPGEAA
Description: Determination of kinetic parameters (KM, kcat, kcat/KM) of substrate hydrolysis by NSP4. The format is biochemical. The note with it: for kcat/KM: calculated from kcat and KM values. On the procedure:
For the enzymatic studies, we used human NSP4 expressed in a Pichia pastoris expression system as described in ref. [15]. The NSP4 concentration used in the deconvolution of the library was […]. The bovine β-trypsin (Sigma Chem. Co., USA) concentration was determined by spectrophotometric titration with 4-nitrophenyl-4′-guanidinobenzoate (NPGB) at an enzyme concentration oscillating around 10^−6 M. Standardized trypsin solution was used to titrate BPTI (Sigma Chem. Co., USA) which in turn served to determine the solution concentrations of the produced NSP4. The substrate ABZ-Met-Phe-Pro-Arg-ANB-NH2 recently developed in our lab was used. The deconvolution of peptide libraries was carried out by the iterative solution method. The lyophilizates obtained for each sublibrary were dissolved in dimethyl sulfoxide (DMSO) to a final concentration of 5 mg/ml, and then diluted tenfold in an assay buffer. The fluorescence tests were performed using a FluoroStar OMEGA fluorescent microplate reader (BMG, Germany). The excitation and emission wavelengths were 320 nm and 410 nm for the ABZ/ANB. Enzymatic hydrolysis of the peptide was performed in 20 mM Tris-Cl buffer supplemented by 150 mM NaCl (pH 7.4) at 37 °C and continued over 30 min.
Assay conditions for the determination of the Michaelis constants (KM) and catalytic constants (kcat) were as noted above. The specificity constants (kcat/KM) were calculated from kcat and KM values. Measurements were performed with an enzyme concentration of 1.46 × 10^−9 M. Three to five measurements were carried out for each compound (systematic error expressed as a standard deviation never exceeded 20%). The calculated initial hydrolysis rates were used as a measure of the substrate activity of the investigated peptides. All details of kinetic studies and the method of calculating kinetic parameters have been described elsewhere.

Series [6] has as its system human neutrophil elastase (HNE). Description: Selectivity: incubation with neutrophil elastase. The format is biochemical. Particulars: substrate 1.97 μM; HNE 10^−8 M, 8.7 nM (Figure 5A legend); pH 7.4, 37 °C, 30 min. On the procedure: as §1, §2
Series [7] concerns hNSP4. Description: Proteolytic cleavage pattern / stability with hNSP4 by HPLC. It counts as biochemical, human. Particulars: hNSP4 14 nM, RP-HPLC; for stability of the cleaved fluorescent fragment with hNSP4: up to 48 h. On the procedure:
Figure 4 HPLC analysis of substrate 1 (1.97 μM) incubated with hNSP4 (14 nM) at different time points: 0, 15 min, 24 h and 48 h.
For each sample of diluted substrate (concentrations 1.97 × 10^−6 M), the appropriate amount of enzyme (1.46 × 10^−8 M) was added, and the solution was incubated for 5, 30, and 60 min. The progress of the proteolytic reaction was monitored by RP-HPLC. The individual peaks resulting from the hydrolysis reaction were collected and identified using the mass spectra which were recorded on a Biflex III MALDI TOF mass spectrometer (Bruker Daltonics, Germany) using α-cyano-4-hydroxycinnamic acid as a matrix.

In series [8] the test system is set of proteases related to blood cells, including cathepsins and kallikreins. Description: Selectivity: set of blood-associated proteases (cathepsins and kallikreins). Particulars: substrate 1.97 μM, enzymes 10^−8 M, Figure 5B, pH 7.4, 37 °C, 30 min. The format is biochemical. On the procedure: as §1, §2
Series [9] deals with cathepsin G (CatG). Description: Selectivity: incubation with cathepsin G. The note with it: substrate 1.97 μM; CatG 10^−8 M, 8.7 nM (Figure 5A legend); pH 7.4, 37 °C, 30 min. It counts as biochemical, human. Here is the method:
as §1, §2

The target of series [10] is T1, human NSP4. Description: Iterative deconvolution in solution of library ABZ-X4-X3-X2-Arg-ANB-NH2 against NSP4. The format is biochemical. Particulars: ABZ-Dap(O2(Cbz))-Dap(Cbz)-X2-Arg-ANB-NH2, 18 individual peptides; 3.4 × 10^−5 M, NSP4 1.46 × 10^−8 M (Figure 3); pH 7.4, 37 °C, 30 min; fluorescence. Here is the method:
In order to construct a novel type of internally quenched library, we used different monoprotected heterobifunctional PEG moieties to diversify a library based on a diaminopropionic acid scaffold (Fig. 1 presents the library formula and its chemical components). The library was synthesized using the mix and split method via Fmoc chemistry. The formation of Dap-PEG conjugates was performed on resin via a submonomeric method (one example of DAPEG-based molecule synthesis is presented in Fig. 2). Our goal was to investigate P2, P3, and P4 subsite preferences with a fixed P1 position occupied by an Arg residue. Each peptide in the library was flanked by a C-terminal amide of 5-amino-2-nitrobenozic acid (acceptor of fluorescence) and an N-terminal 2-amino benzoic acid (fluorescence donor) pair which allowed for simultaneous UV and fluorescence monitoring. Screening process was performed using an iterative mode of deconvolution in solution.
Figure 3 The deconvolution of the library (at average concentration 3.4 × 10^−5 M) with general formula ABZ-X4-X3-X2-Arg-ANB-NH2 against NSP4 (1.46 × 10^−8 M).
For the enzymatic studies, we used human NSP4 expressed in a Pichia pastoris expression system as described in ref. [15]. […] The fluorescence tests were performed using a FluoroStar OMEGA fluorescent microplate reader (BMG, Germany). […]

The conditions of series [11]: qualitative statement.
Series [12] has as its system hNSP4. The series can be described thus: Detection limit of hNSP4 with substrate 1. It counts as biochemical, human. On the procedure: The incubation of substrate 1 with decreasing amounts of hNSP4 yielded a visible fluorescence (signal-to-noise ratio of 3:1) at 10^−11 M of the studied enzyme (Fig. S8).
as §2

Setting [13] is: 20 mM Tris-Cl, 150 mM NaCl, pH 7.4, 37 °C, NSP4 1.46 × 10^−9 M, fluorescence ex 320 / em 410 nm, three to five measurements, SD never exceeded 20%.

On to “MCA-PEG-Ile-Arg-Arg-Ser-Ser-Tyr-Ser-Phe-Lys(Dnp)-Lys”, for which, in [1] (ref [18]), the Km is 13.8 ± 3.3 µM, the kcat was 0.136 ± 0.008 s⁻¹ and the kcat/KM is listed as 10,000 M^−1 × s^−1.
In the case of “ABZ-Dap(O2(Cbz))-Dap(Cbz)-Dap(GO1)-Arg-ANB-NH2 [substrate 1, internally quenched peptidomimetic substrate of NSP4]”, the “susceptibility to NSP4-mediated proteolysis” value in [2] is on record as “susceptible to NSP4-mediated proteolysis”. Also, the “degradation by KLK14 compared with NSP4” value in [3] is “to a much lesser extend to degradation by KLK14”. Further, the “proteolysis by PR3” value in series [4] is reported as “no visible proteolysis”. Further, in series [5] (setting [13]), the Km stood at 7.6 ± 0.5 µM. Moreover, the kcat worked out at 1 s⁻¹ in series [5] (setting [13]) and 1.0 ± 0.1 s⁻¹ in [5] (20 mM Tris-Cl, 150 mM NaCl, pH 7.4, 37 °C, NSP4 1.46 × 10^−9 M, fluorescence ex 320 / em 410 nm, three to five measurements, SD never exceeded 20%, listed as ABZ-Dap(O2(Cbz))-Dap(Cbz)-Dap(GO1)-Arg-ANB-NH2). The kcat/KM in [5] (pH 7.4, 37 °C, NSP4 1.46 × 10^−9 M) was 130000 M⁻¹ s⁻¹; in [5] (pH 7.4, 37 °C, NSP4 1.46 × 10^−9 M, listed as ABZ-Dap(O2(Cbz))-Dap(Cbz)-Dap(GO1)-Arg-ANB-NH2) it was 131,579 M^−1 × s^−1; in series [5] (pH 7.4, 37 °C, NSP4 1.46 × 10^−9 M, listed as the developed compound), “over 1.31 × 10^5 M^−1 × s^−1”. The “specificity (kcat/KM) relative to substrate selected by Kasperkiewicz et al. [19]” value in series [5] (comparison with literature substrate, Kasperkiewicz et al.[19]) was found to be 4 times higher. The “proteolysis by HNE” value in [6] is on record as “no visible proteolysis”. Also, the “cleavage site by hNSP4” value in series [7] (substrate 1 1.97 μM, 0, 15 min, 24 h, 48 h, MS identification) is “cleavage of the peptide bond located between Arg and ANB-NH2”. Also, the “cleavage by other blood-associated proteases” value in series [8] is given as “No other proteolytic enzyme at a concentration of 10^−8 M was able to cleave any of the peptide bonds”. In addition, the “proteolysis by CatG” value in series [9] is “no visible proteolysis”. Also, the “proteolysis / fluorescent intensity, peptides modified at X2” value in series [10] is given as “most susceptible for NSP4-mediated proteolysis”. The solubility in water entry in [11] is given as “excellent solubility in water”. Also, the “detection limit in words” value in [12] (NSP4 detection with substrate 1) was “subnanomolar”. The “detection limit (hNSP4 concentration giving visible fluorescence)” value in [12] (signal-to-noise ratio of 3:1, constant amount of substrate 1, decreasing amounts of hNSP4, Fig. S8) is recorded as 10^−11 M.
As for Ac-hCha-Phe(4-guanidine)-Oic-Arg-ACC, in series [1] (ref [19]), the Km is 61 ± 9.1 µM, the kcat was 2.0 ± 0.5 s⁻¹ and the kcat/KM is listed as 32,786 M^−1 × s^−1.
In the case of `N=C(N)NCCC[C@H](NC(=O)[C@H](CNC(=O)COCCNC(=N)N)NC(=O)[C@H](CNC(=O)OCc1ccccc1)NC(=O)[C@H](CNC(=O)COCCOCCNC(=O)OCc1ccccc1)NC(=O)c1ccccc1N)C(=O)O` [ABZ-Dap(O2(Cbz))-Dap(Cbz)-Dap(GO1)-Arg-OH] (H-[2Abz][Dap]([AEEA-Cbz])[Dap](Cbz)[Dap](X1)R-OH), the “stability of the cleaved fluorescent fragment with hNSP4” value in [7] is recorded as “no further degraded up to 48 h”; in [7] (listed as cleaved N-terminal fragment of the peptidomimetic chain) it was “exceptional proteolytic stability”.
